This is an account of results in patent US7476655B2, “Materials and methods for regulating blood flow” (University of Florida Research Foundation, Inc., priority 2005, dated 2009).

Test [1] has as its system NO release. As to the kind of experiment: NO release in perfusates of in situ perfused rat lungs. The test is classed as in vivo, Sprague Dawley rats. Here is the method:
Specific pathogen-free Sprague Dawley rats (200-250 g body weight) were anesthetized with pentobarbital (60 mg/kg, ip). After confirmation of deep anesthesia, the trachea was cannulated with an 18-G blunt-tipped catheter and ventilated (SAR-830/p small animal ventilator, CWE, Ardmoore, Pa.) at a tidal volume of 2.5 ml/min with warm humidified 21% O2/5% CO2/74% N2 at 60 breaths/min with peak inspiratory and expiratory pressures of 9 cm and 3 cm H2O, respectively. A thoracotomy was performed and 100 units heparin injected into the right ventricle (RV). PE-90 polyethylene tubing connected to a Cook Double Lumen Central Venous Catheter (Cook Critical Care, Bloomington, Ind.) was placed in the left atrium through the left vetricle and tied in place. […] After 30 min, the ventilation mixture was changed to 2% O2/5% CO2/93% N2 (hypoxic) for 30 min and change in PA pressure was continuously recorded using PO-NE-MAH-P3P Lung Perfusion System software (Gould Instrument System) and the perfusate samples were collected to determine level of NO release as previously reported (Hu et al. Am. J. Physiol. Lung Cell Mol. Physiol. 286: L1066-L1074, 2004). The ventilation gas (hypoxic) was return to normoxic gas, and the lungs were perfused with P3 (20 and 40 μM) in RPMI 1640 or RMPI 1640 for 10 min, after which the hypoxic challenge with 2% O2 was repeated, and the PA pressure response was recorded.

Test [2] has as its system hypoxic lungs. As to the kind of experiment: in situ lung perfusion, pulmonary arterial pressure, rat model of hypoxic pulmonary hypertension. Type of test: in vivo, Sprague Dawley rats. Conditions: for pulmonary arterial pressure (PAP): infusion of 20 μM (FIG. 6). As for the experimental part:
Specific pathogen-free Sprague Dawley rats (200-250 g body weight) were anesthetized with pentobarbital (60 mg/kg, ip). After confirmation of deep anesthesia, the trachea was cannulated with an 18-G blunt-tipped catheter and ventilated (SAR-830/p small animal ventilator, CWE, Ardmoore, Pa.) at a tidal volume of 2.5 ml/min with warm humidified 21% O2/5% CO2/74% N2 at 60 breaths/min with peak inspiratory and expiratory pressures of 9 cm and 3 cm H2O, respectively. A thoracotomy was performed and 100 units heparin injected into the right ventricle (RV). PE-90 polyethylene tubing connected to a Cook Double Lumen Central Venous Catheter (Cook Critical Care, Bloomington, Ind.) was placed in the left atrium through the left vetricle and tied in place. After placement of another PE-90 polyethylene tube connected with a double lumen catheter in the main pulmonary artery (PA), the lung were ventilated with 21% O2/5% CO2/74% N2 (normoxic) at constant end-expiratory pressure of […] and […]. After 30 min, the ventilation mixture was changed to 2% O2/5% CO2/93% N2 (hypoxic) for 30 min and change in PA pressure was continuously recorded using PO-NE-MAH-P3P Lung Perfusion System software (Gould Instrument System) and the perfusate samples were collected to determine level of NO release as previously reported (Hu et al. Am. J. Physiol. Lung Cell Mol. Physiol. 286: L1066-L1074, 2004). The ventilation gas (hypoxic) was return to normoxic gas, and the lungs were perfused with P3 (20 and 40 μM) in RPMI 1640 or RMPI 1640 for 10 min, after which the hypoxic challenge with 2% O2 was repeated, and the PA pressure response was recorded.

The subject of test [3] is hypoxic lungs. As to the kind of experiment: in vivo vasodilation effect in rats exposed to hypoxia (10% inspired O2) for 2 to 6 weeks. On the set-up: species or system Sprague Dawley rats. As to conditions: 10 mg/kg or 20 mg/kg ip once every day. Here is the method: Specific pathogen-free Sprague Dawley rats (200-250 g body weight) were exposed to hypoxia (10% inspired O2) in a Coy Laboratory hypoxia chamber equipped with auto purge, airlock, and automated live animal filtration and dehumidification systems for 2 to 6 weeks. Control (normoxia) animals were maintained in similar humidity and temperature environment. Hypoxia exposure was 24 hr/day, except when the chamber was open twice a week for 10-15 min each to clean cages and replenish food and water. All rats were exposed to 12:12-hr light/dark cycle and allowed free access to standard rat food and water. Some rats were administered P3 (+P3) in saline (10 mg/kg or 20 mg/kg, ip) or saline alone (−P3) once every day starting 24 hr prior to initiation of exposure to hypoxia. After 2, 3, and 6 weeks exposure animals were use to measure various parameters including changes in pulmonary artery pressure, lung weight/body weight (LW/BW) ratio, and right vertical/heart weight (RV/HW) ratio.

In test [4] the test system is eNOS. As to the kind of experiment: catalytic activity of eNOS in cultured pulmonary artery endothelial cells ([3H]-citrulline formation from [3H]-L-arginine). Type of test: cell-based. Conditions: PAEC monolayers, varying concentrations, 37° C., 1 hr, compared to control (FIG. 2). Here is the method: The effects of the synthetic peptides (P3, P4, and P6) of the subject invention on the catalytic activity of eNOS were examined using a cultured pulmonary artery endothelial cell (PAEC) model.
PAEC monolayers were incubated in RPMI 1640 medium with or without (control) the presence of varying concentrations of P3, P4, or P6 at 37° C. for 1 hr. After incubation, the catalytic activity of eNOS was determined as previously described by monitoring formation of [3H]-citrulline from [3H]-L-arginine (Chen, S., J. M. Patel and E. R. Block ER (2000) “Angiotensin IV-mediated pulmonary artery vasorelaxation is due to endothelial intracellular calcium release” Am. J. Physiol. Lung Cell Mol. Physiol. 279:L849-L856; and Patel, J. M., Y. D. Li, J. L. Zhang et al. (1999) “Increased expression of calreticulin is linked to Ang-IV-mediated activation of lung endothelial NOS” Am. J. Physiol Lung Cell Mol. Physiol. 277:L794-L801).

Test [5] deals with cGMP-specific PDE. As to the kind of experiment: cGMP-specific PDE activity in PAEC (hydrolysis of 3H-cGMP in supernatant). Conditions: 10 μM, 1 hr at 37° C., compared to control (FIG. 3). Type of test: cell-based. Here is the method: The synthetic peptides were evaluated to asses any association with modulation of cGMP-specific PDE activity in PAEC.
Cell monolayers were incubated in RPMI 1640 medium with or without (control) the presence of 10 μM each of P3, P4, P6 or Zaprinast for 1 hr at 37° C. After incubation, cells were washed, homogenized, and supernatant were collected by centrifugation at 15,000×g for 15 min at 4° C. PDE activity in the supernatant were measured by monitoring hydrolysis of 3H-cGMP as previously described (16).

The test system of test [6] is hypoxic mice lungs. As to the kind of experiment: vasodilator response in excised hypoxic mouse lungs. Conditions: 15 μM, with or without L-NAME 100 μM (FIG. 4). On the set-up: species or system C57BL/6J mice. As for the experimental part: Specific pathogen-free female C57BL/6J mice (30-35 g body weight) were anesthetized with pentobarbital (60 mg/kg, ip), and the lungs were excised from the thorax, ventilated with air (control) or with 0% oxygen for 1 hour at 60 breaths/min with a SAR-830 series small animal ventilator at a tidal volume of 0.6-0.8 ml/100 g body weight. After development of hypoxic vasoconstriction, vasodilator response was monitored by addition of 15 μM each of P3, P4, P6 or zaprinast with or without the presence of nitric oxide synthase inhibitor (L-NAME, 100 μM). The vasodilatory response was continuously monitored as previously described (Hu et al. (2004) Am. J. Physiol. Lung Cell Mol. Physiol. 286:[…]-[…]).

On to “KRFNSISCSSWRRKR (Peptide (P3) used according to the subject invention.)”, for which the “NO release in perfusates” value in test [1] (hypoxic lungs (FIG. 7)) and in test [1] (normoxic lungs (FIG. 7)) was “increases” in each case. Also, the “magnitude of reduction of PAP in hypoxic lung versus normoxic lungs” value in test [2] (hypoxic compared with normoxic lungs) is recorded as “much greater”. Besides, the “pulmonary arterial pressure (PAP)” value in test [2] (hypoxic lungs) and in test [2] (normoxic lungs) was “significantly attenuated” in each case. In addition, the “attenuation of PAP at 40 μM relative to 20 μM” value in test [2] (normoxic and hypoxic lungs, 40 μM) is listed as “comparable”. Further, the “hypoxia-induced PAP pressure” value in test [3] (hypoxia (FIG. 11)) is reported as “attenuated”. Also, in test [3] (hypoxia (FIG. 12)), the “hypoxia-induced RV/HW ratio” value is reported as “attenuated”. In test [4], the “catalytic activity of eNOS” value is listed as “significantly enhanced in a dose-dependent manner”. Further, the “cGMP-specific catalytic activity of PDE” value in test [5] is “significantly reduced”.

For the compound `CCCOc1ccccc1-c1nc2nn[nH]c2c(=O)[nH]1` [Zaprinast, reference compound], the “vasorelaxation of hypoxic mice lungs” value in test [6] was “vasorelaxtion”. Besides, the “cGMP-specific catalytic activity of PDE” value in test [5] is “loss PDE activity”.

For “WRRKRKES (Peptide (P6) used according to the subject invention.)”, the “catalytic activity of eNOS” value in test [4] is “significantly enhanced in a dose-dependent manner”. Besides, in test [5], the “cGMP-specific catalytic activity of PDE” value is recorded as “significantly reduced”.

“KKRFNSISCSSWRRKRKKR (Peptide (P4) used according to the subject invention.)”: the “catalytic activity of eNOS” value in test [4] is given as “significantly enhanced in a dose-dependent manner”. Besides, in test [5], the “cGMP-specific catalytic activity of PDE” value was “significantly reduced”.
